The text below walks through data of US20210154190A1, “SHP2 INHIBITOR COMPOSITIONS AND METHODS FOR TREATING CANCER” (Revolution Medicines, Inc., priority 2018, published 2021).

Assay [1] deals with T1, SHP2 T253M/Q257L (Homo sapiens, UniProt Q06124, Q257L/T253M).
T1 sequence (Q06124 1-593 T253M/Q257L): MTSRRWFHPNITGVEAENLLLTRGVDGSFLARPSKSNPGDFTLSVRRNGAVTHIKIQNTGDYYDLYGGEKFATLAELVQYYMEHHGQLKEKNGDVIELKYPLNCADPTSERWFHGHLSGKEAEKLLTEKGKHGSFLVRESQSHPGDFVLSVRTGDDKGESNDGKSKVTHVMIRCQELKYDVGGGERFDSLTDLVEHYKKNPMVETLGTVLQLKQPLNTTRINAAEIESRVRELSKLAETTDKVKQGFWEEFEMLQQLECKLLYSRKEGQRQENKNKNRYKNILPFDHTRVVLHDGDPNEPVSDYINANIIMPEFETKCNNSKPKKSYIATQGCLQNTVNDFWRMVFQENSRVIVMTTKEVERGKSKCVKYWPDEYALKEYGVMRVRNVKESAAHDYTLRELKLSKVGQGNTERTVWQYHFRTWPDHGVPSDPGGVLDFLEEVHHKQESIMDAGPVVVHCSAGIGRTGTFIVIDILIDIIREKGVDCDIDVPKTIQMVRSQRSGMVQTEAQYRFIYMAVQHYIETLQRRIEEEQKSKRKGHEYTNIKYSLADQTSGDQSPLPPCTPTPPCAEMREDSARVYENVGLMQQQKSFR
The experiment in a line: SHP2 allosteric inhibition assay (DiFMUP), T253M/Q257L. The assay is classed as biochemical. On the set-up: expressed in transfected cells. The note with it: Variant T253M/Q257L.

A further assay addresses T2, SHP2 S502P (Homo sapiens, UniProt Q06124, S502P).
T2 construct: expressed in transfected cells; host or cells: Flp-In T-REx-293 (T-REx-293-SHP2)
The experiment in a line: EGF-induced pERK AlphaLISA in T-REx-293-SHP2 cells, S502P. The assay is classed as cell-based. The note with it: Variant S502P. As to the method: (§1) An experimental system was creating to test the activity of SHP2 mutants on an isogenic background (FIG. 6). The Flp-In T-REx-293 cell line was obtained from Gibco® and cultivated in high glucose DMEM™ containing 2 mM L-glutamine (Hyclone®), supplemented with 10% FBS (Hyclone®), 1% penicillin/streptomycin (Gibco®), 100 μg/mL Zeocin™ (Gibco®), and 15 μg/mL blasticidin (Gibco®) in a humidified cell culture incubator at 37° C., 5% CO2.
(§2) Wild type or mutant SHP2 variants were synthesized and subcloned into the pcDNA5/FRT/TO vector (ThermoFisher). Plasmids were co-transfected with the pOG44 Flp recombinase expression plasmid (ThermoFisher®) into Flp-In T-REx-293 cells using X-tremegene 9 DNA transfection reagent (Sigma®), according to the manufacturer's instructions. […]
(§3) For the final 5 minutes of drug treatment, cells were stimulated with 50 ng/mL Epidermal Growth Factor (Sigma®). […] Samples were read using an EnVision Multilabel Plate Reader (Perkin Elmer®) using standard AlphaLISA settings. Assay data was plotted and EC50 values were determined using four-parameter concentration-response model in GraphPad Prism 7. […]
A general note: In Alpha technology, singlet oxygen from a donor bead excites a nearby acceptor bead.

The next assay concerns the target T3, SHP2 G503V (Homo sapiens, UniProt Q06124, G503V).
T3 construct: expressed in transfected cells; host or cells: Flp-In T-REx-293 (T-REx-293-SHP2)
The experiment in a line: EGF-induced pERK AlphaLISA in T-REx-293-SHP2 cells, G503V. As to conditions: Variant G503V. In kind it is cell-based. As to the method: as §1, §2, §3

The next assay has as its target T4, SHP2 D61G (Homo sapiens, UniProt Q06124, D61G).
T4 construct: expressed in transfected cells; host or cells: Flp-In T-REx-293 (T-REx-293-SHP2)
Nature of the assay: EGF-induced pERK AlphaLISA in T-REx-293-SHP2 cells, D61G. In kind it is cell-based. As to conditions: Variant D61G. The method, then:
as §1, §2, §3

The target of another assay is T5, SHP2 S189A (Homo sapiens, UniProt Q06124, S189A).
T5 construct: expressed in transfected cells; host or cells: Flp-In T-REx-293 (T-REx-293-SHP2)
Nature of the assay: EGF-induced pERK AlphaLISA in T-REx-293-SHP2 cells, S189A. In kind it is cell-based. The note with it: Variant S189A. As to the method:
as §1, §2, §3

Assay [2] concerns the target T1, SHP2 T253M/Q257L. The experiment in a line: EGF-induced pERK AlphaLISA in T-REx-293-SHP2 cells, T253M/Q257L. The assay is classed as cell-based. On the set-up: expressed in transfected cells; host or cells: Flp-In T-REx-293 (T-REx-293-SHP2). The method, then: as §1, §2, §3
Another assay has as its target T6, SHP2 L262R (Homo sapiens, UniProt Q06124, L262R).
T6 construct: expressed in transfected cells; host or cells: Flp-In T-REx-293 (T-REx-293-SHP2)
The experiment in a line: EGF-induced pERK AlphaLISA in T-REx-293-SHP2 cells, L262R. The assay is classed as cell-based. The note with it: Variant L262R. The method, then: as §1, §2, §3

Another assay concerns the target T7, SHP2 Q506P (Homo sapiens, UniProt Q06124, Q506P).
T7 construct: expressed in transfected cells; host or cells: Flp-In T-REx-293 (T-REx-293-SHP2)
The experiment in a line: EGF-induced pERK AlphaLISA in T-REx-293-SHP2 cells, Q506P. In kind it is cell-based. As to conditions: Variant Q506P. The method, then:
as §1, §2, §3

Another assay deals with T8, SHP2 E76K (Homo sapiens, UniProt Q06124, E76K).
T8 construct: expressed in transfected cells; host or cells: Flp-In T-REx-293 (T-REx-293-SHP2)
The experiment in a line: EGF-induced pERK AlphaLISA in T-REx-293-SHP2 cells, E76K. The assay is classed as cell-based. The note with it: Variant E76K. As to the method:
as §1, §2, §3

The target in a further assay is T9, SHP2 WT (Homo sapiens, UniProt Q06124).
T9 construct: expressed in transfected cells; host or cells: Flp-In T-REx-293 (T-REx-293-SHP2)
The experiment in a line: EGF-induced pERK AlphaLISA in T-REx-293-SHP2 cells, WT. In kind it is cell-based. The note with it: Variant WT. The method, then: as §1, §2, §3

Another assay addresses T10, SHP2 G60V (Homo sapiens, UniProt Q06124, G60V).
T10 construct: expressed in transfected cells; host or cells: Flp-In T-REx-293 (T-REx-293-SHP2)
Nature of the assay: EGF-induced pERK AlphaLISA in T-REx-293-SHP2 cells, G60V. The assay is classed as cell-based. As to conditions: Variant G60V. The method, then: as §1, §2, §3

In the next assay the target is T11, SHP2 P491S (Homo sapiens, UniProt Q06124, P491S).
T11 construct: expressed in transfected cells; host or cells: Flp-In T-REx-293 (T-REx-293-SHP2)
Nature of the assay: EGF-induced pERK AlphaLISA in T-REx-293-SHP2 cells, P491S. The assay is classed as cell-based. The note with it: Variant P491S. The method, then: as §1, §2, §3

For the next assay, the target named is T12, SHP2 T73I (Homo sapiens, UniProt Q06124, T73I).
T12 construct: expressed in transfected cells; host or cells: Flp-In T-REx-293 (T-REx-293-SHP2)
Nature of the assay: EGF-induced pERK AlphaLISA in T-REx-293-SHP2 cells, T73I. The note with it: Variant T73I. In kind it is cell-based. As to the method:
as §1, §2, §3

A further assay has as its target T13, SHP2 F285S (Homo sapiens, UniProt Q06124, F285S).
T13 construct: expressed in transfected cells; host or cells: Flp-In T-REx-293 (T-REx-293-SHP2)
The experiment in a line: EGF-induced pERK AlphaLISA in T-REx-293-SHP2 cells, F285S. In kind it is cell-based. As to conditions: Variant F285S. The method, then:
as §1, §2, §3

Each structure is given as a SMILES string.

Take `Cc1nc(N2CCC3(CC2)CO[C@@H](C)[C@H]3N)c(CO)nc1-c1cccc(Cl)c1Cl` [Compound B]: at SHP2 T253M/Q257L [1], the Biochemical sensitivity result is listed as “no (Sensitive if IC50 < 2000 nM)”. In addition, the Cellular sensitivity result was “yes (Sensitive if IC50 < 2000 nM)” at SHP2 S502P; “no (Sensitive if IC50 < 2000 nM)” on SHP2 G503V; “yes (Sensitive if IC50 < 2000 nM)” at SHP2 D61G; “yes (Sensitive if IC50 < 2000 nM)” at SHP2 S189A; “no (Sensitive if IC50 < 2000 nM)” at SHP2 T253M/Q257L [2] (Variant T253M/Q257L); “yes (Sensitive if IC50 < 2000 nM)” at SHP2 L262R. The Cellular sensitivity entry at SHP2 Q506P was “yes (Sensitive if IC50 < 2000 nM)”; at SHP2 E76K it was “no (Sensitive if IC50 < 2000 nM)”; at SHP2 WT, “yes (Sensitive if IC50 < 2000 nM)”; on SHP2 G60V it was “no (Sensitive if IC50 < 2000 nM)”; on SHP2 P491S it was “no (Sensitive if IC50 < 2000 nM)”; on SHP2 T73I it was “yes (Sensitive if IC50 < 2000 nM)”. For the same molecule, at SHP2 F285S, the Cellular sensitivity result was “yes (Sensitive if IC50 < 2000 nM)”. Also, the “inhibition of engineered double mutant in the Compound B binding site” value on SHP2 T253M/Q257L [2] (T253M/Q257L, cellular pERK) is on record as “insensitive to inhibition”.
